From the NIST ThermoML archive (doi:10.1021/acs.jced.7b00520)

Columns and labels:
[1] = mn = molality of the nth substance listed, in mol/kg; details: 101.3 kPa, Liquid; for viscosity: Capillary tube (Ostwald / Ubbelohde) method; for mass density: Vibrating tube method
[2] = 101.3 kPa, Liquid, Capillary tube (Ostwald / Ubbelohde) method

[Cl-].[Cl-].[Mg+2] [magnesium chloride] + O
[1]
Details | mass density, m1 = 0.09999 [kg/m3] | mass density, m1 = 0.25 [kg/m3] | mass density, m1 = 0.5 [kg/m3] | mass density, m1 = 0.7499 [kg/m3] | mass density, m1 = 0.9999 [kg/m3] | viscosity, m1 = 0.0999 [mPa·s] | viscosity, m1 = 0.25 [mPa·s] | viscosity, m1 = 0.5 [mPa·s] | viscosity, m1 = 0.7499 [mPa·s] | viscosity, m1 = 0.9999 [mPa·s]
288.15 K | 1006.87 | 1017.79 | 1034.95 | 1050.84 | 1065.46 | 1.21 | 1.25 | 1.355 | 1.445 | 1.534
298.15 K | 1004.61 | 1015.32 | 1032.22 | 1048.21 | 1062.64 | 0.934 | 0.981 | 1.072 | 1.147 | 1.214
308.15 K | 1001.62 | 1012.53 | 1029.55 | 1045.26 | 1059.4 | 0.751 | 0.794 | 0.862 | 0.934 | 1.01
318.15 K | 997.848 | 1008.92 | 1026.01 | 1041.4 | 1055.25 | 0.624 | 0.659 | 0.715 | 0.762 | 0.814

O [water]
[2]
Details | viscosity [mPa·s]
288.15 K | 1.138
298.15 K | 0.89
308.15 K | 0.719
318.15 K | 0.596
